Measurements from patent US6204283A, “Parasitic mite control on beneficial insects” (American Cyanamid Company, priority 1999, dated 2001).

Tests used:
Assay type in all cases: in vivo
[1] = system: Acarapis woodi (trachea mites); assay: Efficacy against Acarapis woodi parasites on treated glass slides; conditions: slides dipped in 500 ppm acetone solution
Description: Evaluation Of The Efficacy Of Test Compound Against Acarapis woodi Parasites
In this evaluation, honeybees (Apis mellifera) which are infested with Acarapis woodi (trachea mites) are dissected to remove the infested tracheae. Glass microscope slides are dipped into acetone solutions of tebufenpyrad (500 ppm)and the acetone is allowed to evaporate. Infested tracheae are placed directly on the treated slides. The mites are removed from the tracheae by dissection and forced to walk across the treated area. The elapsed time is recorded for 100% mortality, i.e. no movement is observed upon agitation.

[2] = system: Varroa jacobsoni (Varroa mites); assay: Efficacy against Varroa jacobsoni parasites on infested honeybees, topical application (mite mortality); conditions: 120 h, topical 1 μl acetone solution, 5 days, 31° C.
Protocol: (§1) Evaluation Of The Efficacy Of Test Compound Against Varroa jacobsoni Parasites
(§2) In this evaluation, honeybees (Apis mellifera) taken from hives which are 70-90% infested with Varroa jacobsoni (Varroa mites) are chilled to immobilize the bees. A 1 μl droplet of an acetone solution of tebufenpyrad is applied to the dorsal abdomen of each bee. Control bees receive 1 μl droplet of acetone. A total of 50-52 bees are treated for each dose rate tested. Treatment dose rates are based upon the LD50 (dose rate required to obtain 50% mortality of healthy uninfected bees) of tebufenypyrad and are set at 10% of the LD50 and subsequent 10-fold dilution thereof. The treated bees are placed in an incubator at 31° C. in the dark and fed 50% sugar water ad libitum for 5 days. After incubation, the bees are examined for mortality and mite infestation. The results are shown in Table I below, as % mortality of the total of the bees and the total of the mites.

[3] = system: honeybees (Apis mellifera); assay: Mortality of the Varroa-infested honeybees, topical application; conditions: 120 h, topical 1 μl acetone solution, 5 days, 31° C., read-out: % Mortality, Bees
Protocol: as §1, §2

Varroa jacobsoni = assay: Field evaluation against Varroa jacobsoni parasites in infested beehives (stickyboard count); conditions: two strips containing 18% tebufenpyrad in 60:40 beeswax:lard, 24 hours after treatment
Description: Field Evaluation Of The Efficiacy Of Test Compound Against Varroa jacobsoni Parasites
In this evaluation, two Varroa jacobsoni infested beehives are monitored for the extent of infestation using stickyboards inserted at the bottom of the hive. Data are presented as the number of mites trapped on the stickyboard per day. Two strips (2.5×17 cm) containing 18% tebufenpyrad dissolved in a 60:40 beeswax:lard (Crisco®) mixture are inserted into each hive brood chamber as per standard practice. One day after treatment, the stickyboards are removed and the dead mites counted.

Question: Which “Time required to achieve 100% mortality” value ([1]; Rep. 1, 7 mites) does the source give for `CCc1nn(C)c(C(=O)NCc2ccc(C(C)(C)C)cc2)c1Cl` [Tebufenpyrad, N-(4-t-butylbenzyl)-4-chloro-3-ethyl-1-methylpyrazole-5-carboxamide] here?
Answer: 8.5 min

Question: What about the “Time required to achieve 100% mortality” value ([1]; Rep. 2, 10 mites) of the same compound?
Answer: 8 min

Question: What about the “Time required to achieve 100% mortality” value ([1]; Rep. 3, 7 mites) of the same compound?
Answer: 8 min

Question: What about the mortality at 0.006 µg/bee ([2]; 0.006 μg/bee) of the same compound?
Answer: 58%

Question: And the mortality at 0.06 µg/bee ([2]; 0.06 μg/bee)?
Answer: 44%

Question: And the mortality at 0.6 µg/bee ([2]; 0.6 μg/bee)?
Answer: 92%

Question: And the mortality at 0.006 µg/bee ([3]; 0.006 μg/bee)?
Answer: 24%

Question: And the mortality at 0.06 µg/bee ([3]; 0.06 μg/bee)?
Answer: 25%

Question: What about the mortality at 0.6 µg/bee ([3]; 0.6 μg/bee) of the same compound?
Answer: 28%

Question: What about the “Treatment mites/day (dead mites trapped on stickyboard)” value (Varroa jacobsoni; Hive 1, pretreatment 101 mites/day) of the same compound?
Answer: 1777 mites/day

Question: And the “Treatment mites/day (dead mites trapped on stickyboard)” value (Varroa jacobsoni; Hive 2, pretreatment 66 mites/day)?
Answer: 1080 mites/day
